Assay results as given in US20170121315A1, “HETEROBICYCLICALLY SUBSTITUTED 4-OXOBUTANE ACID DERIVATIVES AND USE THEREOF” (priority 2014, published 2017).

Target: T1, human macrophage elastase (HME/hMMP-12) (Homo sapiens, UniProt P39900)
T1 construct: purchased R&D Systems 917-MP
Assay: In vitro HME inhibition test (standard or high-sensitivity)
Assay type: biochemical
Conditions: in some cases mean values, rounded to two significant figures
Procedure: The potency of the compounds according to the invention with respect to HME (MMP-12) is determined in an in vitro inhibition test. The HME-mediated amidolytic cleavage of a suitable peptide substrate leads to an increase in fluorescent light therein. The signal intensity of the fluorescent light is directly proportional to the enzyme activity. The active concentration of a test compound at which half the enzyme is inhibited (50% signal intensity of the fluorescent light) is reported as the IC50 value.
In a 384 hole microtiter plate, in a total test volume of 41 μl, the test buffer (0.1 M HEPES pH 7.4, 0.15 M NaCl, 0.03 M CaCl2, 0.004 mM ZnCl2, 0.02 M EDTA, 0.005% Brij®), the enzyme (0.5 nM HME; R&D Systems, 917-MP, autocatalytic activation according to the manufacturer's instructions) and the intramolecularly quenched substrate [5 μM Mca-Pro-Leu-Gly-Leu-Glu-Glu-Ala-Dap(Dnp)-NH2; Bachem, M-2670] are incubated in the absence and presence of the test substance (as a solution in DMSO) at 37° C. for two hours. The fluorescence intensity of the test mixtures is measured (excitation […], emission 393 nm). The IC50 values are ascertained by plotting the fluorescent light intensity against the active ingredient concentration.
In this case, an enzyme concentration ten times lower is used (final concentration, e.g. 0.05 nM) in order to achieve an increased test sensitivity. The incubation period chosen for the test is correspondingly longer (e.g. 16 hours).

T1 sequence (P39900 106-470): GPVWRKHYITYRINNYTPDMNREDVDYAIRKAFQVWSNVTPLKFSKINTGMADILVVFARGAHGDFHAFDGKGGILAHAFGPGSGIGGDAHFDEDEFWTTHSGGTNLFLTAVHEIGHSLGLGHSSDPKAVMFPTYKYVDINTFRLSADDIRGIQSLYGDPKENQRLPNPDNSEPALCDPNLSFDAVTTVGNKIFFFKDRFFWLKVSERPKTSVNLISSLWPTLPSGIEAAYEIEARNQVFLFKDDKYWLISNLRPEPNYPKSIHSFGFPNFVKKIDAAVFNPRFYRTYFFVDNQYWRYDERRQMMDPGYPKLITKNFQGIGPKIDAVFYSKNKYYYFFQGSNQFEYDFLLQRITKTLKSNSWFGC

Row | IC50 | Compound
1 | 5.6 nM | O=C(CC(CCn1nnc2ccccc2c1=O)C(=O)O)c1cc2ccc(OCCC3CCOCC3)cc2o1 (racemic) [Example 54, (+/−)-4-Oxo-2-[2-(4-oxo-1,2,3-benzotriazin-3(4H)-yl)ethyl]-4-{6-[2-(tetrahydro-2H-pyran-4-yl)ethoxy]-1-benzofur-2-yl}butanoic acid]
2 | 3.7 nM | CCCCCOc1ccc2cc(C(=O)CC(CCn3nnc4ccccc4c3=O)C(=O)O)oc2c1 (racemic) [Example 55, (+/−)-4-Oxo-2-[2-(4-oxo-1,2,3-benzotriazin-3(4H)-yl)ethyl]-4-[6-(pentyloxy)-1-benzofur-2-yl]butanoic acid]
3 | 2.9 nM | CCCCCCOc1ccc2cc(C(=O)CC(CCn3nnc4ccccc4c3=O)C(=O)O)oc2c1 (racemic) [Example 64, (+/−)-4-[6-(Hexyloxy)-1-benzofur-2-yl]-4-oxo-2-[2-(4-oxo-1,2,3-benzotriazin-3(4H)-yl)ethyl]butanoic acid]
4 | 3.8 nM | CCCCCCCOc1ccc2cc(C(=O)CC(CCn3nnc4ccccc4c3=O)C(=O)O)oc2c1 (racemic) [Example 67, (+/−)-4-[6-(Heptyloxy)-1-benzofur-2-yl]-4-oxo-2-[2-(4-oxo-1,2,3-benzotriazin-3(4H)-yl)ethyl]butanoic acid]
5 | 4.1 nM | CC(C)CCCOc1ccc2cc(C(=O)CC(CCn3nnc4ccccc4c3=O)C(=O)O)oc2c1 (racemic) [Example 70, (+/−)-4-{6-[(4-Methylpentyl)oxy]-1-benzofur-2-yl}-4-oxo-2-[2-(4-oxo-1,2,3-benzotriazin-3(4H)-yl)ethyl]butanoic acid]
6 | 3.1 nM | CC(C)CCCCOc1ccc2cc(C(=O)CC(CCn3nnc4ccccc4c3=O)C(=O)O)oc2c1 (racemic) [Example 72, (+/−)-4-{6-[(5-Methylhexyl)oxy]-1-benzofur-2-yl}-4-oxo-2-[2-(4-oxo-1,2,3-benzotriazin-3(4H)-yl)ethyl]butanoic acid]
7 | 0.66 nM | O=C(CC(CCn1nnc2ccccc2c1=O)C(=O)O)c1coc2cc(OCCC3CCCCC3)ccc12 (racemic) [Example 76, (+/−)-4-[6-(2-Cyclohexylethoxy)-1-benzofur-3-yl]-4-oxo-2-[2-(4-oxo-1,2,3-benzotriazin-3(4H)-yl)ethyl]butanoic acid]
8 | 2.9 nM | O=C(CC(CCn1nnc2ccccc2c1=O)C(=O)O)c1coc2cc(OCc3cccc(Cl)c3)ccc12 (racemic) [Example 77, (+/−)-4-{6-[(3-Chlorobenzyl)oxy]-1-benzofur-3-yl}-4-oxo-2-[2-(4-oxo-1,2,3-benzotriazin-3(4H)-yl)ethyl]butanoic acid]
9 | 2 nM | O=C(CC(CCn1nnc2ccccc2c1=O)C(=O)O)c1coc2cc(OCC3CCCC3)ccc12 (racemic) [Example 78, (+/−)-4-[6-(Cyclopentylmethoxy)-1-benzofur-3-yl]-4-oxo-2-[2-(4-oxo-1,2,3-benzotriazin-3(4H)-yl)ethyl]butanoic acid]
10 | 4 nM | O=C(CC(CCn1nnc2ccccc2c1=O)C(=O)O)c1coc2cc(OCc3ccccc3)ccc12 (racemic) [Example 84, (+/−)-4-[6-(Benzyloxy)-1-benzofur-3-yl]-4-oxo-2-[2-(4-oxo-1,2,3-benzotriazin-3(4H)-yl)ethyl]butanoic acid]
11 | 1.4 nM | CCCOc1ccc2c(C(=O)CC(CCn3nnc4ccccc4c3=O)C(=O)O)coc2c1 (racemic) [Example 86, (+/−)-4-Oxo-2-[2-(4-oxo-1,2,3-benzotriazin-3(4H)-yl)ethyl]-4-(6-propoxy-1-benzofur-3-yl)butanoic acid]
12 | 1.3 nM | O=C(CC(CCn1nnc2ccccc2c1=O)C(=O)O)c1coc2cc(OCc3ccc(Cl)c(Cl)c3)ccc12 (racemic) [Example 92, (+/−)-4-{6-[(3,4-Dichlorobenzyl)oxy]-1-benzofur-3-yl}-4-oxo-2-[2-(4-oxo-1,2,3-benzotriazin-3(4H)-yl)ethyl]butanoic acid]
13 | 0.6 nM | O=C(CC(CCn1nnc2ccccc2c1=O)C(=O)O)c1coc2cc(OCC3CCOCC3)ccc12 (racemic) [Example 95, (+/−)-4-Oxo-2-[2-(4-oxo-1,2,3-benzotriazin-3(4H)-yl)ethyl]-4-[6-(tetrahydro-2H-pyran-4-ylmethoxy)-1-benzofur-3-yl]butanoic acid]
14 | 0.4 nM | CCCCCCOc1ccc2c(C(=O)CC(CCn3nnc4ccccc4c3=O)C(=O)O)coc2c1 (racemic) [Example 98, (+/−)-4-[6-(Hexyloxy)-1-benzofur-3-yl]-4-oxo-2-[2-(4-oxo-1,2,3-benzotriazin-3(4H)-yl)ethyl]butanoic acid]
15 | 0.54 nM | O=C(CC(CCn1nnc2ccccc2c1=O)C(=O)O)c1coc2cc(OCCc3ccccc3)ccc12 (racemic) [Example 110, (+/−)-4-Oxo-2-[2-(4-oxo-1,2,3-benzotriazin-3(4H)-yl)ethyl]-4-[6-(2-phenylethoxy)-1-benzofur-3-yl]butanoic acid]
16 | 3.1 nM | O=C(CC(CCn1nnc2ccccc2c1=O)C(=O)O)c1cc2ccc(OCC(=O)C3CC3)cc2s1 (racemic) [Example 115, (+/−)-4-[6-(2-Cyclopropyl-2-oxoethoxy)-1-benzothiophen-2-yl]-4-oxo-2-[2-(4-oxo-1,2,3-benzotriazin-3(4H)-yl)ethyl]butanoic acid]
17 | 4.2 nM | CCCOc1ccc2cc(C(=O)CC(CCn3nnc4ccccc4c3=O)C(=O)O)sc2c1 (racemic) [Example 116, (+/−)-4-Oxo-2-[2-(4-oxo-1,2,3-benzotriazin-3(4H)-yl)ethyl]-4-(6-propoxy-1-benzothiophen-2-yl)butanoic acid]
18 | 5.9 nM | O=C(CC(CCn1nnc2ccccc2c1=O)C(=O)O)c1cc2ccc(OCC3CCCO3)cc2s1 (racemic) [Example 117, (+/−)-4-Oxo-2-[2-(4-oxo-1,2,3-benzotriazin-3(4H)-yl)ethyl]-4-{6-[tetrahydrofuran-2-ylmethoxy]-1-benzothiophen-2-yl}butanoic acid]
19 | 3.7 nM | O=C(CC(CCn1nnc2ccccc2c1=O)C(=O)O)c1cc2ccc(OCC3CCO3)cc2s1 (racemic) [Example 119, (+/−)-4-{6-[Oxetan-2-ylmethoxy]-1-benzothiophen-2-yl}-4-oxo-2-[2-(4-oxo-1-benzotriazin-3(4H)-yl)ethyl]butanoic acid]
20 | 3.1 nM | O=C(CC(CCn1nnc2ccccc2c1=O)C(=O)O)c1cc2ccc(OCC3CCC3)cc2s1 (racemic) [Example 121, (+/−)-4-[6-(Cyclobutylmethoxy)-1-benzothiophen-2-yl]-4-oxo-2-[2-(4-oxo-1,2,3-benzotriazin-3(4H)-yl)ethyl]butanoic acid]
21 | 2.7 nM | O=C(CC(CCn1nnc2ccccc2c1=O)C(=O)O)c1cc2ccc(OCc3ccncc3)cc2s1 (racemic) [Example 123, (+/−)-4-Oxo-2-[2-(4-oxo-1,2,3-benzotriazin-3(4H)-yl)ethyl]-4-[6-(pyridin-4-ylmethoxy)-1-benzothiophen-2-yl]butanoic acid]
22 | 0.95 nM | COc1cccc(C(=O)COc2ccc3cc(C(=O)CC(CCn4nnc5ccccc5c4=O)C(=O)O)sc3c2)c1 (racemic) [Example 124, (+/−)-4-{6-[2-(3-Methoxyphenyl)-2-oxoethoxy]-1-benzothiophen-2-yl}-4-oxo-2-[2-(4-oxo-1,2,3-benzotriazin-3(4H)-yl)ethyl]butanoic acid]

Row | Compound | IC50
23 | N#CCCCCOc1ccc2oc(C(=O)CC(CCn3nnc4ccccc4c3=O)C(=O)O)cc2c1 (racemic) [Example 53, (+/−)-4-[5-(4-Cyanobutoxy)-1-benzofur-2-yl]-4-oxo-2-[2-(4-oxo-1,2,3-benzotriazin-3(4H)-yl)ethyl]butanoic acid] | 2.9 nM
24 | CCCCOc1ccc2cc(C(=O)CC(CCn3nnc4ccccc4c3=O)C(=O)O)oc2c1 (racemic) [Example 61, (+/−)-4-(6-Butoxy-1-benzofur-2-yl)-4-oxo-2-[2-(4-oxo-1,2,3-benzotriazin-3(4H)-yl)ethyl]butanoic acid] | 4.6 nM
25 | CC(C)COc1ccc2c(C(=O)CC(CCn3nnc4ccccc4c3=O)C(=O)O)coc2c1 (racemic) [Example 104, (+/−)-4-(6-Isobutoxy-1-benzofur-3-yl)-4-oxo-2-[2-(4-oxo-1,2,3-benzotriazin-3(4H)-yl)ethyl]butanoic acid] | 1.1 nM
26 | CCCCOc1ccc2c(C(=O)CC(CCn3nnc4ccccc4c3=O)C(=O)O)coc2c1 (racemic) [Example 107, (+/−)-4-(6-Butoxy-1-benzofur-3-yl)-4-oxo-2-[2-(4-oxo-1,2,3-benzotriazin-3(4H)-yl)ethyl]butanoic acid] | 0.61 nM
27 | O=C(CC(CCn1nnc2ccccc2c1=O)C(=O)O)c1cc2ccc(OCCCC(F)(F)F)cc2s1 (racemic) [Example 120, (+/−)-4-Oxo-2-[2-(4-oxo-1,2,3-benzotriazin-3(4H)-yl)ethyl]-4-[6-(4,4,4-trifluorobutoxy)-1-benzothiophen-2-yl]butanoic acid] | 3.6 nM
28 | CC(C)CCOc1ccc2cc(C(=O)CC(CCn3nnc4ccccc4c3=O)C(=O)O)sc2c1 (racemic) [Example 122, (+/−)-4-[6-(3-Methylbutoxy)-1-benzothiophen-2-yl]-4-oxo-2-[2-(4-oxo-1,2,3-benzotriazin-3(4H)-yl)ethyl]butanoic acid] | 4.5 nM
